Measured values taken from patent publication US7074459B2, “Method for preserving wood” (priority 2003, dated 2006).

What was measured:
Assay type in all cases: cell-based
[1] = test system: brown-rot fungus Gloeophyllum trabeum; assay: ASTM 1413 standard soil block test, 12 weeks; conditions: 1% treatment, unleached, 12-week soil block test with G. trabeum
Protocol: The following five wood preservatives were prepared for testing according to ASTM Stanard D 1413. • 1. chlorhexidine (CH)—Omadine^a 1:2 complex • 2. Polyhexamethylene biguanide—Omadine 1:1 complex • 3. Bardac^b 2250—Omadine 1:1 complex • 4. Tetrakis(hydroxylmethyl)phosphonium 0 Omadine 1:1 complex • 5. B-55^c polyionene—Omadine 1:2 complex • a) Omadine is 2-mercapto pyridine N-oxide • b) Barclac 2250 is […] • c) […] is poly(oxyethylene(dimethyliminio)ethylene(dimethylimino)ethylene dichloride Biological Evaluation
The ASTM 1413 standard soil block test was performed (ASTM 1999) Five soil bottles of each treatment and solution concentration (plus untreated controls) were exposed to the brown-rot fungus Gloeophyllum trabeum for 12 weeks. Two soil bottles with no fungus were also run to monitor any leaching of chemicals. Specimens were removed from test after 12 weeks exposure and conditioned until constant weight in the conditioning room (27° C./30°RH). The extent of decay was determined by weight loss.

[2] = test system: Escherichia coli (gram negative); assay: Bacteriostatic activity in Oxoid No. 2 nutrient broth; conditions: 0.1 wt. %, 48 hours incubation
Protocol: (§1) The bacteriostatic activity of several complexes was investigated by testing at 0.1 wt. % using Oxoid No. 2 nutrient broth and inoculating the broth with 1 ml of a 24 hour broth culture of the test organisms. After incubation at the optimum growth temperature of the organism for 48 hours.
(§2) The organisms tested were:
Escherichia coli (gram negative)

[3] = test system: Pseudomonas aeruginosa (gram negative); assay: as above; conditions: 0.1 wt. %, 48 hours incubation
Protocol: as §1, §2
Pseudomonas aeruginosa (gram negative)

[4] = test system: Staphylococcus aureous (gram positive); assay: as above; conditions: 0.1 wt. %, 48 hours incubation
Protocol: as §1, §2
Staphylococcus aureous (gram positive)

For `N=C(NCCCCCCNC(=N)NC(=N)Nc1ccc(Cl)cc1)NC(=N)Nc1ccc(Cl)cc1.On1ccccc1=S.On1ccccc1=S` [Compound 6, chlorhexidinium di(2-mercapto-pyridine N-oxides)], the “Wt. Loss % (Fungus)” value [1] was 1.57%, the bacteriostatic activity [2] was “bacteriostatic” and the bacteriostatic activity [3] was “bacteriostatic”. The bacteriostatic activity [4] was “bacteriostatic”.
With “didecyldimethyl ammonium 2-mercapto-benzothiazole [Compound 5]” the bacteriostatic activity [2] was “bacteriostatic”, the bacteriostatic activity [3] was “bacteriostatic” and the bacteriostatic activity [4] was “bacteriostatic”.
In the case of `OC[P+](CO)(CO)CO.[O-][n+]1ccccc1[S-]` [Compound 8], the “Wt. Loss % (Fungus)” value [1] was −0.07%, the bacteriostatic activity [2] was “bacteriostatic” and the bacteriostatic activity [3] was “bacteriostatic”. For the same compound, the bacteriostatic activity [4] was “bacteriostatic”.
With `N=C(NCCCCCCNC(=N)NC(=N)Nc1ccc(Cl)cc1)NC(=N)Nc1ccc(Cl)cc1.Oc1cc(Cl)ccc1Oc1ccc(Cl)cc1Cl.Oc1cc(Cl)ccc1Oc1ccc(Cl)cc1Cl` [Compound 10, chlorhexidinium di (triclosante)] the bacteriostatic activity [2] was “bacteriostatic”, the bacteriostatic activity [3] was “bacteriostatic” and the bacteriostatic activity [4] was “bacteriostatic”.
